We go through 18 compounds from article PMC6264177, “Synthesis and Characterization of (Z)-5-Arylmethylidene-rhodanines with Photosynthesis-Inhibiting Properties ^†” (Molecules, 2011).

Data set [1] can be described thus: Lipophilicity HPLC determination (capacity factor k / log k). The data set is classed as physicochemical. The settings on record: RP-HPLC, C18 column, isocratic, MeOH 70% / H2O 30%. How it is done: The procedure was performed under isocratic conditions with methanol as an organic modifier in the mobile phase using an end-capped non-polar C18 stationary RP column. […] The HPLC separation process was monitored by Empower™ 2 Chromatography Data Software, Waters 2009 (Waters Corp., Milford, MA, USA). […] The detection wavelength of 210 nm was chosen. The KI methanolic solution was used for the dead time (tD) determination. Retention times (tR) were measured in minutes. […] Log k, calculated from the capacity factor k, is used as the lipophilicity index converted to log P scale.

In data set [2] the test system is photosynthetic electron transport (PET) in spinach chloroplasts. Kind of data set: Inhibition of photosynthetic electron transport (PET) in spinach chloroplasts, DCPIP photoreduction. The settings on record: DCPIP as electron acceptor, pH 7.2. The data set is classed as biochemical, Spinacia oleracea L. How it is done: Chloroplasts were prepared from spinach (Spinacia oleracea L.) according to ref. [54]. The inhibition of photosynthetic electron transport (PET) in spinach chloroplasts was determined spectrophotometrically (Genesys 6, Thermo Scientific, USA) using an artificial electron acceptor 2,6-dichlorophenol-indophenol (DCIPP) according to ref. [55], and the rate of photosynthetic electron transport was monitored as a photoreduction of DCPIP. The measurements were carried out in phosphate buffer (0.02 mol/L, pH 7.2) containing sucrose (0.4 mol/L), MgCl2 (0.005 mol/L) and NaCl (0.015 mol/L). The chlorophyll content was 30 mg/L in these experiments, and the samples were irradiated (~100 W/m^2) from 10 cm distance with a halogen lamp (250 W) using a 4 cm water filter to prevent warming of the samples (suspension temperature 22 °C). The studied compounds were dissolved in DMSO due to their limited water solubility.

As to `COc1ccccc1/C=C1\SC(=S)NC1=O` [Compound 4a, (5Z)-5-(2-Methoxybenzylidene)-2-thioxo-1,3-thiazolidin-4-one], the log k in data set [1] is 0.5867.
Regarding `COc1cccc(/C=C2\SC(=S)NC2=O)c1` [Compound 4b, (5Z)-5-(3-Methoxybenzylidene)-2-thioxo-1,3-thiazolidin-4-one], the log k in data set [1] turned out to be 0.5713. In addition, the midpoint of inhibition in data set [2], the IC50, lay at 221 µM.
The corresponding values for `COc1ccc(/C=C2\SC(=S)NC2=O)cc1` [Compound 4c, (5Z)-5-(4-Methoxybenzylidene)-2-thioxo-1,3-thiazolidin-4-one] are 0.5425 and 174 µM.
Consider `O=C1NC(=S)S/C1=C\c1ccccc1[N+](=O)[O-]` [Compound 7a, (5Z)-5-(2-Nitrobenzylidene)-2-thioxo-1,3-thiazolidin-4-one], for which the log k in data set [1] turned out to be 0.2254. In addition, in data set [2], half-maximal inhibition (IC50) required 428 µM.
In data set [1], `O=C1NC(=S)S/C1=C\c1ccccc1F` [Compound 8a, (5Z)-5-(2-Fluorobenzylidene)-2-thioxo-1,3-thiazolidin-4-one] showed a log k of 0.8108. Also, in data set [2], the midpoint of inhibition, the IC50, lay at 99.5 µM.
The corresponding values for `O=C1NC(=S)S/C1=C\c1cccc(F)c1` [Compound 8b, (5Z)-5-(3-Fluorobenzylidene)-2-thioxo-1,3-thiazolidin-4-one] are 0.8204 and 23.8 µM.
The corresponding values for `O=C1NC(=S)S/C1=C\c1ccc(F)cc1` [Compound 8c, (5Z)-5-(4-Fluorobenzylidene)-2-thioxo-1,3-thiazolidin-4-one] are 0.7909 and 63.5 µM.
`O=C1NC(=S)S/C1=C\c1ccccc1Cl` [Compound 9a, (5Z)-5-(2-Chlorobenzylidene)-2-thioxo-1,3-thiazolidin-4-one] had a log k in data set [1] of 0.9019. Further, the IC50 – broadly, the point on the concentration scale where inhibition reaches its midpoint – in data set [2] came out at 53.3 µM.
The matching figures for `O=C1NC(=S)S/C1=C\c1cccc(Cl)c1` [Compound 9b, (5Z)-5-(3-Chlorobenzylidene)-2-thioxo-1,3-thiazolidin-4-one]: 1.0270 and 17 µM.
`O=C1NC(=S)S/C1=C\c1ccccc1Br` [Compound 10a, (5Z)-5-(2-Bromobenzylidene)-2-thioxo-1,3-thiazolidin-4-one]: the log k in data set [1] came out at 0.9368. This compound also registered an IC50 in data set [2] of 18.1 µM.
With `O=C1NC(=S)S/C1=C\c1cccc(Br)c1` [Compound 10b, (5Z)-5-(3-Bromobenzylidene)-2-thioxo-1,3-thiazolidin-4-one], the log k in data set [1] is 1.0820. In data set [2], this compound returned an IC50 of 5.2 µM.
The corresponding values for `O=C1NC(=S)S/C1=C\c1ccc(Br)cc1` [Compound 10c, (5Z)-5-(4-Bromobenzylidene)-2-thioxo-1,3-thiazolidin-4-one] are 0.6940 and 3 µM.
For the compound `O=C1/C(=C/c2cccc([N+](=O)[O-])c2)SC(=S)N1CCO` [Compound 11b, (5Z)-3-(2-Hydroxyethyl)-5-(3-nitrobenzylidene)-2-thioxo-1,3-thiazolidin-4-one], the log k in data set [1] is listed as 0.6077.
On the same count and under the same terms, under `O=C1/C(=C/c2ccc([N+](=O)[O-])cc2)SC(=S)N1CCO` [Compound 11c, (5Z)-3-(2-Hydroxyethyl)-5-(4-nitrobenzylidene)-2-thioxo-1,3-thiazolidin-4-one] stands 0.6349.
`O=C1NC(=S)S/C1=C\c1ccccn1` [Compound 12, (5Z)-5-(Pyridin-2-ylmethylidene)-2-thioxo-1,3-thiazolidin-4-one]: the log k in data set [1] is 0.4864.
Still for that read-out and setting: the value for `O=C1NC(=S)S/C1=C\c1cccnc1` [Compound 13, (5Z)-5-(Pyridin-3-ylmethylidene)-2-thioxo-1,3-thiazolidin-4-one] was 0.4539; that for `O=C1NC(=S)S/C1=C\c1ccncc1` [Compound 14, (5Z)-5-(Pyridin-4-ylmethylidene)-2-thioxo-1,3-thiazolidin-4-one] was 0.1878.
Same read-out and setting: under `O=C1NC(=S)S/C1=C\c1ccco1` [Compound 16, (5Z)-5-(Furan-2-ylmethylidene)-2-thioxo-1,3-thiazolidin-4-one] stands 0.4656.
